According to patent US20100137240A1, “USE OF NUCLEOSIDE DERIVATIVES AS ANTI-KOI HERPES VIRUS IN FISH” (Katholieke Universiteit Leuven, priority 2007, published 2010):
Converted amounts (≈) assume the structure as drawn. Where two headings read alike, the source gives them in different places.

Tests used:
Koi Herpes virus (KHV) [1] = test: Inhibition of Koi Herpes Virus infections in cell culture (plaque / cytopathic effect, crystal violet); type: cell-based, Koi herpesvirus (KHV); conditions: for IC50: Cyprinid herpesvirus 3, 120 h; for effect on KHV replication (in words): in vitro; for concentration resulting in complete inhibition of KHV replication: KHV in CCB cells, five days post infection
Procedure: KHV inhibitory activity can be readily detected using the assays described herein, as well as other assays known to those of ordinary skill in the art. In general, carp cells are infected with KHV and are incubated with the compounds to be tested for inhibitory activity. A more detailed description is provided in the examples.
(§1) Compounds for testing KHV-antiviral activity were dissolved in dimethylsulfoxide (DMSO) at a concentration of 20 mg/ml, then filtrated through a 0.45 μm filter to obtain a sterile solution. Common carp brain (CCB) cells were grown in minimum essential medium (MEM, commercially available from Invitrogen) containing 4.5 g/l glucose (D-glucose monohydrate, Merck) and 10% fetal calf serum (FCS, commercially available from BioWhittaker). Cells were incubated at 25° C. in a humid atmosphere containing 5% CO2. Confluent cell monolayers grown in 24 wells cluster dishes were inoculated with 200 plaque forming units (PFU) of KHV in 0.2 ml of serum free Dulbecco's Modified Eagle Medium (DMEM, commercially available from Invitrogen). […] Five days post infection (pi), viral plaques or virus induced cytopathic effects were observed by staining cells with a crystal violet (Merck) solution.
as §1, with “Alternatively, PMEDAP was” for “Compounds for testing KHV-antiviral activity were”, “DMEM and propyleneglycol (33.3%)/ethanol(8.3%) (PE buffer) respectively,” for “dimethylsulfoxide (DMSO)”, “10 mg/ml.” for “20 mg/ml, then filtrated through a 0.45 μm filter to obtain a sterile solution.”, “modified eagle medium” for “Modified Eagle Medium”

koi carps [2] = test: In vivo koi carps toxicity experiment, intramuscular injection; parameters: species or system koi carps (Cyprinus carpio koi); conditions: for Microscopic lesions: liver and kidney explants
Procedure: An additional experiment was performed as following: Naive adult koi carps were kept in 60-liter tanks with filtrated water maintained at 23° C. […] (5 koi per group) were treated for 10 consecutive days, by intramuscular injection of 20 mg/kg PMEDAP ((“PMEDAP 20”) or 50 mg/kg PMEDAP (“PMEDAP 50”)) dissolved in 0.1 ml of DMEM. Two other groups (5 koi per group), used as negative controls, were injected with 0.1 ml of DMEM. After 10 days, all fish were examined and weighed. Three fishes of each group were euthanized. Liver and kidney explants were treated for anatomopathology analysis.

Koi Herpes virus (KHV) [3] = test: Pulse chase treatment with PMEDAP on KHV growth in vitro; type: cell-based, Koi herpesvirus (KHV); conditions: 50 μg/ml PMEDAP for only the first 24 hours post infection, CCB cells, observed 5 days post-infection
Procedure: PMEDAP was dissolved in DMSO at a concentration of 20 mg/ml then filtrated through a 0.45 μm filter. CCB cells were grown in 24-well culture plates in MEM containing 4.5 g/l glucose and 10% FCS. Cells were inoculated with 200 PFU of KHV in 0.2 ml of serum free DMEM. After 2 hours incubation, cells were overlaid with DMEM (4.5 g/l glucose, 10% FCS) containing 50 μg/ml of PMEDAP. Mock-infected cells and untreated infected cells (ND) were included as negative controls. At successive intervals pi, cells were washed twice with PBS then overlaid with complete DMEM. Five days pi, viral plaques were observed by a crystal violet assay.

koi carps [4] = test: In vivo koi carps toxicity experiment, intraperitoneal injection; parameters: species or system koi carps (Cyprinus carpio koi); conditions: 50 mg/kg intraperitoneal, 10 consecutive days
Procedure: Naïve adult koi carps were kept in 150-liter tanks with filtrated water maintained at 23° C. One group (n=12) was treated for 10 consecutive days, by intraperitoneal injection of PMEDAP (50 mg/kg) dissolved in 0.2 ml of DMEM. The other group (n=12), used as negative control, was injected with 0.2 ml DMEM. After 10 days, all fish were examined and weighed. Three fishes of each group were euthanized. Liver and kidney explants were treated for anatomopathology analysis.

KHV infections = conditions: Ilouze et al., FEBS Letters (2006) 580(18) 4473-4478; cited from earlier work
[5] = KHV (200 PFU) in CCB cells, compounds dissolved in DMSO, read five days post infection, read-out: IC50
[6] = 20 mg/kg intramuscular, 10 consecutive days (PMEDAP 20)
[7] = 50 mg/kg intramuscular, 10 consecutive days (PMEDAP 50)

## O=C(O)P(=O)(O)O [PFA (foscarnet), foscarnet]
Koi Herpes virus (KHV) [1]; [5]
  IC50: > 100 µg/mL

## Nc1nc(O)c2ncn(COC(CO)CO)c2n1 [GCV (ganciclovir), ganciclovir]
Koi Herpes virus (KHV) [1]; [5]
  IC50: 100 µg/mL (≈ 392 µM)
Koi Herpes virus (KHV) [1]
  effect on KHV replication (in words): no effect or a very limited effect

## Nc1nc(N)c2ncn(CCOCP(=O)(O)O)c2n1 [PMEDAP, 9-(2-phosphonylmethoxyethyl)-2,6-diaminopurine]
Koi Herpes virus (KHV) [1]; [5]
  IC50: 4.8 µg/mL (≈ 16.7 µM)
Koi Herpes virus (KHV) [1]
  concentration resulting in complete inhibition of KHV replication: 12.5 µg/mL
  effect on KHV replication (in words): highly active
Koi carps [2]; [6]
  Clinical signs: None
  Survival (%): 100%
  Microscopic lesions: None
Koi carps [2]; 20 mg/kg intramuscular, 10 consecutive days (PMEDAP 20), mean initial weight 23.1 g
  Mean final weight: 21.3 g
Koi carps [2]; [7]
  Clinical signs: None
  Survival (%): 100%
  Microscopic lesions: None
Koi carps [2]; 50 mg/kg intramuscular, 10 consecutive days (PMEDAP 50), mean initial weight 16.3 g
  Mean final weight: 15.3 g
Koi Herpes virus (KHV) [3]
  inhibition of virus induced cytopathic effect: complete inhibition
Koi carps [4]
  Clinical signs: None
  Survival (%): 100%
  mean weight of fishes, PMEDAP versus DMEM: statistically similar
  toxic effect (in words): did not reveal any toxic effect
Koi carps [4]; liver and kidney explants
  Microscopic lesions: None
Koi carps [4]; mean initial weight 66.1 g
  Mean final weight: 71.5 g

## O=c1[nH]c(=O)n([C@H]2C[C@H](O)[C@@H](CO)O2)cc1/C=C/Br [BVDU (brivudin), brivudin]
Koi Herpes virus (KHV) [1]
  IC50: 100 µg/mL (≈ 300 µM)
  effect on KHV replication (in words): no effect or a very limited effect

## Nc1nc2c(ncn2COCCO)c(=O)[nH]1 [acyclovir]
Koi Herpes virus (KHV) [1]
  effect on KHV replication (in words): no effect or a very limited effect
KHV infections
  activity against KHV infections (in words): inactive

## Nc1ncnc2c1ncn2CCOCP(=O)(O)O [PMEA (adefovir), 9-[2-phosphonylmethoxyethyl]adenine]
Koi Herpes virus (KHV) [1]; [5]
  IC50: 6.5 µg/mL (≈ 23.8 µM)
Koi Herpes virus (KHV) [1]
  concentration resulting in complete inhibition of KHV replication: 25 µg/mL

## Nc1ccn(C[C@@H](CO)OCP(=O)(O)O)c(=O)n1 [HPMPC, cidofovir]
Koi Herpes virus (KHV) [1]; [5]
  IC50: 50 µg/mL (≈ 179 µM)
Koi Herpes virus (KHV) [1]
  effect on KHV replication (in words): no effect or a very limited effect
